ChEMBL document CHEMBL1221187, “Histone deacetylase inhibitors reverse gene silencing in Friedreich's ataxia” (Nat Chem Biol, 2006)
Active and inactive are the calls of the source. The calls are words filed in the database; no cut-off is given here.

Experiments:
[1] = biological target: T1, Histone deacetylase (Homo sapiens) (UniProt Q13547+O15379+Q9UBN7+Q92769+Q9UQL6+Q8WUI4+Q9BY41+Q96DB2+P56524+Q9UKV0+Q969S8); experiment: Inhibition of HDAC in human GM15850 cells assessed as increase in total acetylated histone level at 400 uM after 12 hrs by Western blot analysis; assay type: cell-based
[2] = Cytotoxicity against human GM15850 cells at 5 uM after 96 hrs by trypan blue exclusion assay; assay type: cell-based; details: gm15850, 96 h
[3] = biological target: Histone deacetylase; experiment: Inhibition of HDAC in human HeLa cell extract by fluorescence plate reader assay; assay type: cell-free
[4] = test system: GM15850; experiment: Increase in FXN mRNA expression in human GM15850 cells at 5 uM after 96 hrs by qRT-PCR analysis relative to control; assay type: functional
[5] = test system: Lymphocyte; experiment: Increase in FXN mRNA expression in lymphocytes isolated from patient with Friedreich's ataxia at 10 uM after 48 hrs by qRT-PCR analysis; assay type: functional, cell-based; details: Homo sapiens
[6] = Cytotoxicity against human GM15850 cells at 5 uM after 12 hrs by trypan blue exclusion assay; assay type: cell-based; details: gm15850, 12 h
[7] = test system: GM15850; experiment: Increase in FXN mRNA expression in human GM15850 cells at 5 uM after 12 hrs by qRT-PCR analysis relative to control; assay type: functional
[8] = test system: GM15850; experiment: Increase in frataxin protein level in human GM15850 cells at 5 uM after 4 days by SDS-PAGE relative to control; assay type: functional
[9] = test system: Lymphocyte; experiment: Increase in FXN mRNA expression in lymphocytes isolated from patient with Friedreich's ataxia at 2.5 uM after 48 hrs by qRT-PCR analysis; assay type: functional, Homo sapiens
[10] = test system: Lymphocyte; experiment: Increase in FXN mRNA expression in lymphocytes isolated from patient with Friedreich's ataxia at 5 uM after 48 hrs by qRT-PCR analysis; assay type: functional, Homo sapiens
[11] = test system: Lymphocyte; experiment: Increase in FXN mRNA expression in healthy human lymphocytes at 5 uM after 48 hrs by qRT-PCR analysis; assay type: functional
[12] = Cytotoxicity against lymphocytes isolated from patient with Friedreich's ataxia at 2.5 to 5 uM after 48 hrs by trypan blue exclusion assay; assay type: cell-based; details: human, lymphocyte
[13] = test system: Lymphocyte; experiment: Effect on FXN mRNA expression in healthy human lymphocytes at 2.5 uM after 48 hrs by qRT-PCR analysis; assay type: functional, cell-based
[14] = test system: Lymphocyte; experiment: Increase in FXN mRNA expression in lymphocytes isolated from patient with Friedreich's ataxia at 5 uM after 48 hrs by qRT-PCR analysis relative to control; assay type: functional, Homo sapiens
[15] = test system: GM15850; experiment: Effect on FXN mRNA expression in human GM15850 cells at 5 uM after 12 hrs by qRT-PCR analysis; assay type: functional, cell-based
[16] = test system: GM15850; experiment: Increase in FXN mRNA expression in human GM15850 cells at 10 uM after 96 hrs by qRT-PCR analysis relative to control; assay type: functional
[17] = Decrease in FXN mRNA expression in human GM15850 cells at 5 uM after 12 hrs by qRT-PCR analysis; assay type: functional, cell-based
[18] = test system: Lymphocyte; experiment: Increase in FXN mRNA expression in lymphocytes isolated from patient with Friedreich's ataxia at 10 uM after 48 hrs by qRT-PCR analysis relative to mRNA level in healthy human lymphocytes; assay type: functional
[19] = biological target: T1, Histone deacetylase (Homo sapiens); experiment: Inhibition of HDAC in human GM15850 cells assessed as increase in histone H4 lysine 5 acetylation of FXN gene at 5 uM after 96 hrs by chromatin immunoprecipitation assay; assay type: cell-based
[20] = biological target: T1, Histone deacetylase (Homo sapiens); experiment: Inhibition of HDAC in human GM15850 cells assessed as increase in histone H3 lysine 9 acetylation of FXN gene at 5 uM after 96 hrs by chromatin immunoprecipitation assay; assay type: cell-based
[21] = biological target: T1, Histone deacetylase (Homo sapiens); experiment: Inhibition of HDAC in human GM15850 cells assessed as increase in histone H4 lysine 16 acetylation of FXN gene at 5 uM after 96 hrs by chromatin immunoprecipitation assay; assay type: cell-based
[22] = biological target: T1, Histone deacetylase (Homo sapiens); experiment: Inhibition of HDAC in human GM15850 cells assessed as increase in histone H4 lysine 12 acetylation of FXN gene at 5 uM after 96 hrs by chromatin immunoprecipitation assay; assay type: cell-based
[23] = test system: GM15850; experiment: Increase in frataxin protein level in human GM15850 cells at 2.5 uM after 4 days by SDS-PAGE relative to control; assay type: functional
[24] = biological target: T1, Histone deacetylase (Homo sapiens); experiment: Inhibition of HDAC in human GM15850 cells assessed as increase in histone H4 lysine 8 acetylation of FXN gene at 5 uM after 96 hrs by chromatin immunoprecipitation assay; assay type: cell-based
[25] = test system: Lymphocyte; experiment: Increase in FXN mRNA expression in lymphocytes isolated from patient with Friedreich's ataxia at 5 uM after 48 hrs by qRT-PCR analysis relative to mRNA level in healthy human lymphocytes; assay type: functional
[26] = biological target: T1, Histone deacetylase (Homo sapiens); experiment: Inhibition of HDAC in human GM15850 cells assessed as increase in histone H3 lysine 14 acetylation of FXN gene at 5 uM after 96 hrs by chromatin immunoprecipitation assay; assay type: cell-based
[27] = test system: Lymphocyte; experiment: Increase in FXN mRNA expression in lymphocytes isolated from patient with Friedreich's ataxia at 2.5 to 7.5 uM after 48 hrs by qRT-PCR analysis; assay type: functional, cell-based; details: Homo sapiens

SMILES	Activity [2]	IC50 [3]	fold change (FC) [4]	also measured
CCCC(CCC)C(=O)O [VALPROIC ACID]	Non-toxic	–	–	inhibition [1]: Active
COc1ccc(NC(=O)CCCCCC(=O)Nc2ccccc2)c(OC)c1	Non-toxic	387 µM	1.5	–
Nc1ccc(NC(=O)CCCCCC(=O)Nc2ccccc2)cc1	Non-toxic	123 µM	2.6	Activity [5]: inactive
Nc1ccccc1NC(=O)CCCCCC(=O)Nc1ccccn1	Non-toxic	91 µM	2.4	Activity [5]: Active
O=C(CCCCCCC(=O)Nc1ccccn1)Nc1ccccc1	Non-toxic	99 µM	2	Activity [5]: inactive
O=C(CCCCCC(=O)Nc1ccccn1)Nc1ccccc1	Non-toxic	140 µM	2.6	–
COc1ccc(NC(=O)CCCCCC(=O)Nc2ccccc2)cc1	Non-toxic	438 µM	2.5	–
Nc1ccccc1NC(=O)CCCCCCC(=O)Nc1ccccc1	Non-toxic	87 µM	1.4	Activity [6]: Non-toxic; fold change (FC) [7]: 2; fold change (FC) [8]: 3; Activity [9]: 33%; Activity [10]: 80%; Activity [11]: inactive; Activity [12]: Non-toxic; Activity [13]: inactive; fold change (FC) [14]: 1.8
Nc1ccc(NC(=O)CCCCCCC(=O)Nc2ccccc2)cc1	Non-toxic	186 µM	2	–
O=C(CCCCCCC(=O)Nc1ccccc1)NO [VORINOSTAT]	Toxic	–	–	Activity [15]: inactive
Nc1cccc(NC(=O)CCCCCCC(=O)Nc2ccccc2)c1	Non-toxic	85 µM	2.1	–
O=C(CCCCCC(=O)Nc1cnc2ccccc2c1)Nc1ccccc1	Non-toxic	84 µM	2.5	–
O=C(CCCCCC(=O)Nc1cccc2cccnc12)Nc1ccccc1	Non-toxic	17 µM	3	–
COc1ccccc1NC(=O)CCCCCCC(=O)Nc1ccccc1	Non-toxic	470 µM	1.8	–
O=C(CCCCCC(=O)Nc1ccccc1)Nc1ccccc1	Non-toxic	–	–	–
COc1ccccc1NC(=O)CCCCCC(=O)Nc1ccccc1	Non-toxic	54 µM	2.3	–
CC(/C=C/C(=O)NO)=C\[C@@H](C)C(=O)c1ccc(N(C)C)cc1 [TRICHOSTATIN]	Toxic	–	–	–
Nc1cccc(NC(=O)CCCCCC(=O)Nc2ccccc2)c1	Non-toxic	500 µM	1.5	–
Nc1ccccc1NC(=O)CCCCCC(=O)Nc1ccccc1N	Non-toxic	14 µM	3.1	fold change (FC) [16]: 3.5; Activity [5]: Active
O=C(CCCCCCC(=O)NO)NO [SUBEROHYDROXAMIC ACID]	Non-toxic	–	–	inhibition [17]: 50%
Nc1ccccc1NC(=O)CCCCCC(=O)Nc1ccccc1	Non-toxic	78 µM	2.5	Activity [18]: 160%; Activity [19]: Active; Activity [20]: inactive; Activity [9]: 33%; Activity [21]: inactive; Activity [10]: 130%; Activity [11]: 38%; Activity [22]: Active; Activity [12]: Non-toxic; fold change (FC) [23]: 3; Activity [13]: inactive; Activity [24]: inactive; Activity [25]: 80%; Activity [26]: Active; fold change (FC) [14]: 2.3; Activity [27]: Active
Nc1ccccc1NC(=O)CCCCC(=O)Nc1ccccc1	Non-toxic	238 µM	1.4	–
COc1cccc(NC(=O)CCCCCC(=O)Nc2ccccc2)c1	Non-toxic	> 1 µM	1.8	–
